Tested on: lashes and adjacent hairs (hair growth)
Test: Observation of lashes and adjacent hairs in glaucoma patients treated with bimatoprost in only one eye
Format: in vivo
Text: In the course of treating patients having glaucoma, treatment may only be appropriate in one eye. […] The lash appearance on the lids of the treated eyes would have appeared quite attractive if it represented a bilateral phenomenon. As a result of its asymmetric nature, the long lashes on one side could be construed as disturbing from a cosmetic standpoint. A systemic examination was preformed as a result of the asymmetric phenomenon. It soon became apparent that this altered appearance was not an isolated finding.
The changes in the lashes were apparent on gross inspection in several patients once attention was focused on the issue. In those with light colored hair and lashes, the differences were only seen easily with the aid of the high magnification and lighting capabilities of the slit lamp biomicroscope. In the course of glaucoma follow-up examination, attention is generally immediately focused on the eye itself. As a result of the high power magnification needed only one eye is seen at a time and the eye is seen at a high enough power that the lashes are not in focus. At these higher powers, any lash asymmetry between the two eyes is not likely to be noticed except by careful systematic comparison of the lashes and adjacent hairs of the eyelids of the two eyes. […]

SMILES: CCNC(=O)CCC/C=C\C[C@@H]1[C@@H](/C=C/[C@@H](O)CCc2ccccc2)[C@H](O)C[C@@H]1O [bimatoprost]
- differences in the lashes and adjacent hairs of the treated side (all patients taking the drug on a unilateral basis for longer than 6 months): Definite differences could be identified to varying degrees
- appearance of lashes in the treated eye compared with the non-treated eye (glaucoma patient treated in one eye, treated vs non-treated eye): longer, thicker, and fuller
